Results from patent US10174202B2, “Dyes with phosphinic acid, phosphinate, phosphonate and phosphonamidate substituents as auxochromic groups and methods for preparing the same” (Max-Planck-Gesellschaft zur Foerderung der Wissenschaften …, priority 2017, dated 2019).
Several values for one entry are separate records, joined by “and”; a condition that tells them apart may be missing. Equal entries are not always repeated. Structures can show the parent of a compound that is named as a salt. Marks after values point to notes of the source that are not given here.

Assays:
[1] = Absorption spectroscopy (UV/Vis); type: physicochemical
Procedure: (§1) Absorption spectra were recorded with a Varian Cary 4000 UV-Vis double-beam spectrophotometer (Agilent Technologies, USA). For the determination of the absorption spectra, quartz cells with a 1 cm path length were used. Emission spectra and fluorescence quantum yield were obtained on a Quantaurus-QY Absolute PL quantum yield spectrometer C11347 (Hamamatsu Photonics, Japan) or on a Varian Cary Eclipse fluorescence spectrometer (Agilent Technologies, USA).

[2] = Emission spectra and fluorescence quantum yield; type: physicochemical
Procedure: as §1

[3] = in acetonitrile, trifluoroacetate
[4] = in aq. PBS, pH 7.4, trifluoroacetate

Structure (SMILES) | ε at absorption max. ([1]; in aq. PBS, pH 7.4) | Emission max. ([2]; in aq. PBS, pH 7.4) | QY (fluorescence quantum yield, Φfl) ([2]; in aq. PBS, pH 7.4) | Absorption max. ([1]; in acetonitrile) | ε at absorption max. [1, 3] | Absorption max. ([1]; in aq. PBS, pH 7.4) | ε at absorption max. [1, 4] | Emission max. ([2]; in acetonitrile) | QY (fluorescence quantum yield, Φfl) ([2]; in acetonitrile) | Stokes shift ([2]; in acetonitrile) | Stokes shift ([2]; in aq. PBS, pH 7.4) | ε at absorption max. ([1]; in acetonitrile) | Absorption max. ([1]; in methanol) | ε at absorption max. ([1]; in methanol) | Emission max. ([2]; in methanol) | QY (fluorescence quantum yield, Φfl) ([2]; in methanol) | Stokes shift ([2]; in methanol)
COP(=O)(OC)c1c2ccc(=[N+](C)C)cc-2oc2cc(N(C)C)ccc12.O=C([O-])C(F)(F)F [Compound 5, 9-(Dimethoxyphosphoryl)-3,6-bis(dimethylamino)-9H-xanthenylium trifluoroacetate] | 21400 M⁻¹ cm⁻¹ | 667 nm | 0.16 |  |  |  |  |  |  |  |  |  |  |  |  |  | 
CC(C)OP(=O)(OC(C)C)c1c2ccc(N(C)C)cc2[o+]c2cc(N(C)C)ccc12.O=C([O-])C(F)(F)F [Compound 6, 9-(Diisopropoxyphosphoryl)-3,6-bis(dimethylamino)-9H-xanthenylium trifluoroacetate] |  | 668 nm | 0.12 | 617 nm | 57638 M⁻¹ cm⁻¹ and 57600 M⁻¹ cm⁻¹ | 629 nm | 52254 M⁻¹ cm⁻¹ and 52300 M⁻¹ cm⁻¹ | 649 nm | 0.38 | 32 nm | 39 nm |  |  |  |  |  | 
COP(=O)(c1c2ccc(N(C)C)cc2[o+]c2cc(N(C)C)ccc12)N(C(C)C)C(C)C.O=C([O-])C(F)(F)F (stereo not shown) [Compound 7, 9-[(Diisopropylamino)(methoxy)phosphoryl]-3,6-bis(dimethylamino)-9H-xanthenylium trifluoroacetate] |  | 664 nm | 0.11 | 616 nm | 52455 M⁻¹ cm⁻¹ and 52500 M⁻¹ cm⁻¹ | 628 nm | 46051 M⁻¹ cm⁻¹ and 46100 M⁻¹ cm⁻¹ | 649 nm | 0.39 | 33 nm | 36 nm |  |  |  |  |  | 
CN(C)c1ccc2c(P(=O)(c3ccccc3)c3ccccc3)c3ccc(N(C)C)cc3[o+]c2c1.O=C([O-])C(F)(F)F [Compound 8, 3,6-Bis(dimethylamino)-9-(diphenylphosphoryl)-9H-xanthenylium trifluoroacetate] |  | 639 nm | 0.26 | 574 nm |  | 601 nm |  | 600 nm | 0.35 | 26 nm | 38 nm |  |  |  |  |  | 
C=CCOC(=O)CCCOP(=O)(OC)[c+]1c2ccc(N(C)C)cc2oc2cc(N(C)C)ccc21 (stereo not shown) [Compound 12, 9-[[4-(Allyloxy)-4-oxobutoxy](methoxy)phosphoryl]-3,6-bis(dimethylamino)-9H-xanthen-9-ylium chloride] | 29540 M⁻¹ cm⁻¹ | 669 nm | 0.17 | 621 nm |  | 632 nm |  | 653 nm | 0.32 | 32 nm | 37 nm | 42690 M⁻¹ cm⁻¹ and 42700 M⁻¹ cm⁻¹ |  |  |  |  | 
CN(C)c1ccc2c([PH](=O)[O-])c3ccc(N(C)C)cc3[o+]c2c1 [Compound 13, [3,6-Bis(dimethylamino)-9H-xanthenylium-9-yl]phosphinate] | 59543 M⁻¹ cm⁻¹ and 59400 M⁻¹ cm⁻¹ | 627 nm | 0.33 |  |  | 590 nm |  |  |  |  | 37^b nm |  |  |  |  |  | 
CCOP(=O)(CC(=O)[O-])c1c2ccc(N(C)C)cc2[o+]c2cc(N(C)C)ccc12 (stereo not shown) [Compound 14, 2-[[3,6-Bis(dimethylamino)-9H-xanthenylium-9-yl](ethoxy)phosphoryl]acetate] | 47622 M⁻¹ cm⁻¹ | 667 nm | 0.22 | 625 nm |  | 631 nm |  | 656 nm | 0.32 | 31 nm | 36 nm | 22599 M⁻¹ cm⁻¹ |  |  |  |  | 
CN(C)c1ccc2c(P(=O)([O-])CCC(=O)O)c3ccc(=[N+](C)C)cc-3oc2c1 [Compound 15, [3,6-Bis(dimethylamino)-9H-xanthenyhum-9-yl](2-carboxyethyl)phosphinate] | 52094 M⁻¹ cm⁻¹ and 52100 M⁻¹ cm⁻¹ | 636 nm | 0.29 |  |  | 598 nm |  |  |  |  | 38^b nm |  |  |  |  |  | 
COP(=O)(C1=c2cc3c4c(c2Oc2c1cc1c5c2CCCN5CCC1)CCC[N+]=4CCC3)N(C(C)C)C(C)C (stereo not shown) [Compound 17, 9-[(Diisopropylamino)(methoxy)phosphoryl]-1H,2H,3H5H,6H,7H,11H,12H,13H,15H,16H,17H-pyrido[3,2,1-ij]quinolizino[1′,9′:6,7,8]chromeno[2,3-f]quinolinium trifluoroacetate] |  | 696 nm | 0.11 | 649 nm | 52455 M⁻¹ cm⁻¹ and 53000 M⁻¹ cm⁻¹ | 661 nm | 46976 M⁻¹ cm⁻¹ and 47000 M⁻¹ cm⁻¹ | 679 nm | 0.25 | 30 nm | 35 nm |  |  |  |  |  | 
COP(=O)([O-])C1=c2cc3c4c(c2Oc2c1cc1c5c2CCCN5CCC1)CCC[N+]=4CCC3 [Compound 18, Methyl (1H,2H,3H,5H,6H,7H,11H,12H,13H,15H,16H,17H-pyrido[3,2,1-ij]quinolizino[1′,9′:6,7,8]chromeno[2,3-f]quinolinium-9-yl)phosphonate] | 52286 M⁻¹ cm⁻¹ and 52300 M⁻¹ cm⁻¹ | 666 nm | 0.17 | 596 nm |  | 630 nm |  | 623 nm | 0.85 | 27 nm | 36 nm | 49565 M⁻¹ cm⁻¹ and 49600 M⁻¹ cm⁻¹ |  |  |  |  | 
CCOP(=O)(C1=c2cc3c4c(c2Oc2c1cc1c5c2CCCN5CCC1)CCC[N+]=4CCC3)N(C)CCC(=O)O (stereo not shown) [Compound 19, 9-[[(2-Carboxyethyl)(methyl)amino](ethoxy)phosphoryl]-1H,2H,3H,5H,6H,7H,11H,12H,13H,15H,16H,17H-pyrido[3,2,1-ij]quinolizino[1′,9′:6,7,8]chromeno[2,3-f]quinolinium trifluoroacetate] | 37214 M⁻¹ cm⁻¹ | 705 nm | 0.11 | 648 nm |  | 659 nm |  | 682 nm | 0.19 | 34 nm | 46 nm | 29373 M⁻¹ cm⁻¹ |  |  |  |  | 
COP(=O)(OC)c1c2ccc(N(C)C)cc2[n+](C)c2cc(N(C)C)ccc12 [Compound 22, 9-(Dimethoxyphosphoryl)-3,6-bis(dimethylamino)-10-methylacridinium trifluoroacetate] |  |  |  |  |  |  |  |  |  |  |  |  | 560 nm | 43000 M⁻¹ cm⁻¹ | 620 nm | 0.95 | 60^e nm
CN(C)c1ccc2c(c1)-c1cccc3c(N(C)C)ccc(c13)C2.[O-][Cl+3]([O-])([O-])O [Compound 28d] |  |  |  |  |  |  |  |  |  |  |  |  | 646 nm | 23000 M⁻¹ cm⁻¹ | 673 nm | 0.25 | 
